In BindingDB's records for doi:10.1021/jm960799i (Dupont Pharmaceuticals, 1997) one finds IC50 data, which are given here for 23 compounds.

Several values for one entry are separate records, joined by “and”; a condition that tells them apart may be missing. Equal entries are not always repeated. Structures can show the parent of a compound that is named as a salt.

As a reminder, the IC50 is the concentration at which inhibition is half-maximal. High values mean weaker potency in that assay, low ones greater potency in that assay.

The target in the test is Integrin alpha-IIb/beta-3 (Homo sapiens, UniProt P08514+P05106). In words: In vitro inhibition of ADP-induced platelet aggregation in human platelet rich plasma (hPRP).
Integrin alpha-IIb/beta-3, sequence (P05106 27-788 limits assumed): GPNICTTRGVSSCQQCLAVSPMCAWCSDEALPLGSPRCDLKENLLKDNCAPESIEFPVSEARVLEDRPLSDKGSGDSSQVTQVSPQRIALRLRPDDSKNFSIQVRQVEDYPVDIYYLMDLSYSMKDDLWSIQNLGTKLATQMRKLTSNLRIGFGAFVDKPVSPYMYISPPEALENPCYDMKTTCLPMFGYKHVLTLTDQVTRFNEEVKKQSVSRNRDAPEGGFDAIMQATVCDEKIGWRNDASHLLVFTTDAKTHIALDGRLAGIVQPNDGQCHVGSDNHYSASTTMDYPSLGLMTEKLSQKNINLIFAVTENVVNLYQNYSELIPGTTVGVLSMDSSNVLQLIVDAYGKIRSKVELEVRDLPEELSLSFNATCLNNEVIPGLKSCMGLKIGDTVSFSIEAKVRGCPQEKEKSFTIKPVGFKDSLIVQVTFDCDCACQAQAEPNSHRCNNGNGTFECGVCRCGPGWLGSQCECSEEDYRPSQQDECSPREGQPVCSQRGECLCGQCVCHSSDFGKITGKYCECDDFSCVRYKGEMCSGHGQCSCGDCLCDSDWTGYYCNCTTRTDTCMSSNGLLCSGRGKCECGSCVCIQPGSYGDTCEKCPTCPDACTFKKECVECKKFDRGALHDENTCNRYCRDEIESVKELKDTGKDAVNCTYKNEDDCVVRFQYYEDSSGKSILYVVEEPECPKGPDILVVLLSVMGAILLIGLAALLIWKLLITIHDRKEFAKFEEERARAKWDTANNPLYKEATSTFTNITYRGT
Integrin alpha-IIb/beta-3, sequence (P08514 32-887 limits assumed): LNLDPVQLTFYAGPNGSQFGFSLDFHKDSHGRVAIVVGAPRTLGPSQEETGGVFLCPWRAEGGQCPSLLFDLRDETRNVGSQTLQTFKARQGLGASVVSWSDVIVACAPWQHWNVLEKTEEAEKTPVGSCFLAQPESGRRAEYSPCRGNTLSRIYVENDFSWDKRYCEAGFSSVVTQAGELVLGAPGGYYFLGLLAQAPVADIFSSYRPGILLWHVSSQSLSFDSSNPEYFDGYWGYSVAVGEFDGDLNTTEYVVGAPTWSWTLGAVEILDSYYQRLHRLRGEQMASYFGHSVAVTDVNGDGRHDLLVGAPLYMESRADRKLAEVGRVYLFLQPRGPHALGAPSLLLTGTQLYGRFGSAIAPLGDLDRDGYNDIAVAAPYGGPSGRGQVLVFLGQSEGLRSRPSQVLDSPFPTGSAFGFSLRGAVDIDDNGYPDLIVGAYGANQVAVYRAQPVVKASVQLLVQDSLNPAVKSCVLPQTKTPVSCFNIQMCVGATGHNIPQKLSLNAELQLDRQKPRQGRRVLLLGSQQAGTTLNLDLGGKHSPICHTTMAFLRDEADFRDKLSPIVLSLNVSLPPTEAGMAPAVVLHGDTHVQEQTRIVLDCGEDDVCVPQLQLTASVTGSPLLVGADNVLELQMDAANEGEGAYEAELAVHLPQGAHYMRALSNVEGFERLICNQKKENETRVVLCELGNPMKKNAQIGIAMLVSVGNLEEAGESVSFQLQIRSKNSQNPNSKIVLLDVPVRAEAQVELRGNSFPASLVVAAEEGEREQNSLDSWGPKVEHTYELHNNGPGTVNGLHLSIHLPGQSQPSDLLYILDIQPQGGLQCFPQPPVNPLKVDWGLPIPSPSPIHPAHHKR
Integrin alpha-IIb/beta-3, sequence (P08514 891-1039 limits assumed): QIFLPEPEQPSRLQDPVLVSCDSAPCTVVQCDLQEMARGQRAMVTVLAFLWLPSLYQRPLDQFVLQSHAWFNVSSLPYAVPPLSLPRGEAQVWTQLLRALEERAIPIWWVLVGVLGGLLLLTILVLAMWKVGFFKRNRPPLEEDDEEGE
`CCCCOC(=O)N[C@@H](CNC(=O)CC1CC(c2ccc(C(=N)N)cc2F)=NO1)C(=O)O` (stereo partly drawn) [(S)-2-Butoxycarbonylamino-3-{2-[3-(4-carbamimidoyl-2-fluoro-phenyl)-4,5-dihydro-isoxazol-5-yl]-acetylamino}-propionic acid] registered an IC50 of 73 nM. That is a double-digit nanomolar value.

With `N=C(N)c1ccc(C2=NOC(CC(=O)NC[C@H](NC(=O)OCCC3CCCC3)C(=O)O)C2)cc1` (stereo partly drawn) [(S)-3-{2-[3-(4-Carbamimidoyl-phenyl)-4,5-dihydro-isoxazol-5-yl]-acetylamino}-2-(2-cyclopentyl-ethoxycarbonylamino)-propionic acid; TFA], the IC50 came out at 32 nM.

As for `N=C(N)c1ccc(C2=NOC(CC(=O)N[C@@H](CC(=O)O)C(=O)N3CCSCC3)C2)cc1` (stereo partly drawn) [(S)-3-{2-[3-(4-Carbamimidoyl-phenyl)-4,5-dihydro-isoxazol-5-yl]-acetylamino}-4-oxo-4-thiomorpholin-4-yl-butyric acid; TFA], inhibition was half-maximal at 360 nM (IC50).

Compound `N=C(N)c1ccc(C2=NOC(CC(=O)N[C@H](CCc3ccccn3)CC(=O)O)C2)cc1` (stereo partly drawn) [(R)-3-{2-[3-(4-Carbamimidoyl-phenyl)-4,5-dihydro-isoxazol-5-yl]-acetylamino}-5-pyridin-2-yl-pentanoic acid; TFA] came in with an IC50 of 180 nM. This IC50 lies about 2-fold lower than the previous one.

As for `N=C(N)c1ccc(C2=NOC(CC(=O)N[C@@H](CC(=O)O)C(=O)NC3C4CC5CC(C4)CC3C5)C2)cc1` (stereo partly drawn) [(S)-N-Adamantan-2-yl-3-{2-[3-(4-carbamimidoyl-phenyl)-4,5-dihydro-isoxazol-5-yl]-acetylamino}-succinamic acid; TFA], inhibition was half-maximal at 140 nM (IC50).

In turn, `N=C(N)c1ccc(C2=NOC(CC(=O)N[C@@H](CC(=O)O)C(=O)NCC34CC5CC(CC(C5)C3)C4)C2)cc1` (stereo partly drawn) [(S)-N-Adamantan-1-ylmethyl-3-{2-[3-(4-carbamimidoyl-phenyl)-4,5-dihydro-isoxazol-5-yl]-acetylamino}-succinamic acid; TFA] came in with a half-maximal inhibitory concentration (IC50) of 95 nM.

In turn, `CCCCOC(=O)N[C@@H](CN(C)C(=O)CC1CC(c2ccc(C(=N)N)cc2)=NO1)C(=O)O` (stereo partly drawn) [(S)-2-Butoxycarbonylamino-3-({2-[3-(4-carbamimidoyl-phenyl)-4,5-dihydro-isoxazol-5-yl]-acetyl}-methyl-amino)-propionic acid; TFA] had a half-inhibitory concentration (IC50) of 200 nM.

For `N=C(N)c1ccc(C2=NOC(CC(=O)N[C@@H](CC(=O)O)Cc3ccccc3)C2)cc1` (stereo partly drawn) [(R)-3-{2-[3-(4-Carbamimidoyl-phenyl)-4,5-dihydro-isoxazol-5-yl]-acetylamino}-4-phenyl-butyric acid; TFA], the 50% inhibitory concentration (IC50) stood at 78 nM.

`CC(C)COC(=O)N[C@@H](CNC(=O)CC1CC(c2ccc(C(=N)N)cc2)=NO1)C(=O)O` (stereo partly drawn) [(S)-3-{2-[3-(4-Carbamimidoyl-phenyl)-4,5-dihydro-isoxazol-5-yl]-acetylamino}-2-isobutoxycarbonylamino-propionic acid; TFA]: the concentration for half-maximal inhibition (IC50) was 47 nM.

As to `N=C(N)c1ccc(C2=NOC(CC(=O)NC[C@H](N)C(=O)O)C2)cc1` (stereo partly drawn) [(S)-2-Amino-3-{2-[3-(4-carbamimidoyl-phenyl)-4,5-dihydro-isoxazol-5-yl]-acetylamino}-propionic acid; TFA], the IC50 came to 91 nM. This IC50 is about 1.9-fold higher than that of the compound before.

In turn, `CCCCOC(=O)N[C@@H](CNC(=O)CC1CC(c2ccc(N=C(N)N)cc2)=NO1)C(=O)O` (stereo partly drawn) [(S)-2-Butoxycarbonylamino-3-{2-[3-(4-guanidino-phenyl)-4,5-dihydro-isoxazol-5-yl]-acetylamino}-propionic acid] registered an IC50 of 88 nM.

Consider `COC(=O)C[C@H](CN(C)C)NC(=O)CC1CC(c2ccc(C(=N)N)cc2)=NO1` (stereo partly drawn) [(R)-3-{2-[3-(4-Carbamimidoyl-phenyl)-4,5-dihydro-isoxazol-5-yl]-acetylamino}-4-dimethylamino-butyric acid methyl ester; TFA], for which it took 7000 nM to reach half-maximal inhibition (IC50).

`CCc1ccc(C(=O)N[C@@H](CNC(=O)CC2CC(c3ccc(C(=N)N)cc3)=NO2)C(=O)O)cc1` (stereo partly drawn) [(S)-3-{2-[3-(4-Carbamimidoyl-phenyl)-4,5-dihydro-isoxazol-5-yl]-acetylamino}-2-(4-ethyl-benzoylamino)-propionic acid; TFA] gave an IC50 of 49 nM.

`CN(C[C@@H](C(=O)O)N(C)C(=O)OCc1ccccc1)C(=O)CC1CC(c2ccc(C(=N)N)cc2)=NO1` (stereo partly drawn) [(S)-2-(Benzyloxycarbonyl-methyl-amino)-3-({2-[3-(4-carbamimidoyl-phenyl)-4,5-dihydro-isoxazol-5-yl]-acetyl}-methyl-amino)-propionic acid; TFA] registered an IC50 of 570 nM.

As for `N=C(N)c1ccc(C2=NOC(CC(=O)NC[C@H](NC(=O)NCc3ccccc3)C(=O)O)C2)cc1` (stereo partly drawn) [(S)-2-(3-Benzyl-ureido)-3-{2-[3-(4-carbamimidoyl-phenyl)-4,5-dihydro-isoxazol-5-yl]-acetylamino}-propionic acid; TFA], 67 nM corresponded to half-maximal inhibition (IC50). Compared with the last compound, the IC50 is about 8.5-fold lower.

`N=C(N)c1ccc(C2=NOC(CC(=O)NC[C@H](NC(=O)OCCc3ccccc3)C(=O)O)C2)cc1` (stereo partly drawn) [(S)-3-{2-[3-(4-Carbamimidoyl-phenyl)-4,5-dihydro-isoxazol-5-yl]-acetylamino}-2-phenethyloxycarbonylamino-propionic acid; TFA] came in with an IC50 of 55 nM.

For `CCCCOC(=O)N[C@@H](CNC(=O)CC1CC(c2ccc(C(=N)N)cc2)=NO1)C(=O)O` (stereo partly drawn) [(S)-2-Butoxycarbonylamino-3-{2-[3-(4-carbamimidoyl-phenyl)-4,5-dihydro-isoxazol-5-yl]-acetylamino}-propionic acid; TFA], the concentration for half-maximal inhibition (IC50) was 75 nM and 42 nM.

In the case of `N=C(N)c1ccc(C2=NOC(CC(=O)NC[C@H](NC(=O)OCc3ccc(Br)cc3)C(=O)O)C2)cc1` (stereo partly drawn) [(S)-2-(4-Bromo-benzyloxycarbonylamino)-3-{2-[3-(4-carbamimidoyl-phenyl)-4,5-dihydro-isoxazol-5-yl]-acetylamino}-propionic acid; TFA], the half-inhibitory concentration (IC50) worked out at 44 nM.

Take `CCCCOC(=O)N[C@@H](CNC(=O)CC1CC(C2CCNCC2)=NO1)C(=O)O` (stereo partly drawn) [(S)-2-Butoxycarbonylamino-3-[2-(3-piperidin-4-yl-4,5-dihydro-isoxazol-5-yl)-acetylamino]-propionic acid; TFA]: the IC50 came to 6300 nM.

Turning to `CCCCOC(=O)N[C@@H](CNC(=O)CC1CC(c2ccc(C(=N)N)cc2)=NO1)C(=O)OC` (stereo partly drawn) [(S)-2-Butoxycarbonylamino-3-{2-[3-(4-carbamimidoyl-phenyl)-4,5-dihydro-isoxazol-5-yl]-acetylamino}-propionic acid methyl ester; hydrochloride], 30 nM corresponded to half-maximal inhibition (IC50).

As to `CCCCOC(=O)N[C@@H](CNC(=O)CC1CC(CCC2CCNCC2)=NO1)C(=O)O` (stereo partly drawn) [(S)-2-Butoxycarbonylamino-3-{2-[3-(2-piperidin-4-yl-ethyl)-4,5-dihydro-isoxazol-5-yl]-acetylamino}-propionic acid; TFA], the IC50 came out at 180 nM.

With `N=C(N)c1ccc(C2=NOC(CC(=O)N[C@H](CCc3ccncc3)CC(=O)O)C2)cc1` (stereo partly drawn) [(R)-3-{2-[3-(4-Carbamimidoyl-phenyl)-4,5-dihydro-isoxazol-5-yl]-acetylamino}-5-pyridin-4-yl-pentanoic acid; TFA], the concentration for half-maximal inhibition (IC50) turned out to be 500 nM.

The compound `N=C(N)c1ccc(C2=NOC(CC(=O)N[C@@H](CC(=O)O)C(=O)NCCc3ccccc3)C2)cc1` (stereo partly drawn) [(S)-3-{2-[3-(4-Carbamimidoyl-phenyl)-4,5-dihydro-isoxazol-5-yl]-acetylamino}-N-phenethyl-succinamic acid; TFA] returned a 50% inhibitory concentration (IC50) of 68 nM.
